# Literature values as cited in US12606918B2, “Production of sanitizing fluid using in situ electrolysis” (APPLIED PHAGE GMBH, priority 2024, dated 2026).
# Where two headings read alike, the source gives them in different places.
smiles,measurement,setting,value
[O-][Cl+2]([O-])O [chlorate],ADI (allowable daily intake),as ClO3^−,0.0024 mg/kg BW·day
same,ADI (allowable daily intake),as NaClO3,0.003 mg/kg BW·day
same,Arfd (acute reference dose),as NaClO3,0.003 mg/kg BW·day
